Experimental data as given in patent US20120122727A1, “IN VITRO METHOD FOR PREDICTING WHETHER A COMPOUND IS GENOTOXIC IN VIVO” (priority 2009, published 2012).

System: primary mouse hepatocytes
Experiment: Gene expression (Affymetrix Mouse Genome 430 2.0) in primary mouse hepatocytes, true vs false GTX, 24 h and 48 h
Settings: log2, corrected for vehicle control

## Nc1ccccc1C(=O)O [ANAC, o-Anthranilic acid]
24 h average
  Gene expression data AF000969 (Cadps2): −0.12
  Gene expression data AF022072 (Grb10): 0.4544
  Gene expression data AF065917 (Lif): −0.2023
  Gene expression data AF204959 (Cyp3a25 /// LOC622249): −0.28
  Gene expression data AF297615 (Ggta1): 0.03103
  Gene expression data AI594683 (Dmn): −0.2163
  Gene expression data AI596632 (Ptprg /// LOC632664): 0.1214
  Gene expression data AI987929 (Ndrg1): 0.6977
  Gene expression data AK004419 (Fbxl17): −0.01793
  Gene expression data AK005731 (1700007K13Rik): −0.1733
  Gene expression data AK007766 (1810044A24Rik): −0.05167
  Gene expression data AK007854 (1810053B23Rik): −0.4283
  Gene expression data AK009736 (Gpr137b /// LOC664862 /// LOC673335): −0.0957
  Gene expression data AK010447 (Smyd3): −0.1211
  Gene expression data AK014608 (4632434l11Rik): −0.1768
  Gene expression data AK019979 (2610528E23Rik): 0.1139
  Gene expression data AV095209 (Mthfd1l): 0.3162
  Gene expression data AV141095 (1110033M05Rik): −0.1293
  Gene expression data AV173571 (1700106N22Rik): −0.1574
  Gene expression data AV219418 (Ldhb): −0.2907
  Gene expression data AV223474 (Zdhhc14): −0.07347
  Gene expression data AV298304 (Homez): −0.0861
  Gene expression data AV327248 (Zfp365 /// LOC674611): 0.0212
  Gene expression data AV377066 (9130221J18Rik): −0.2482
  Gene expression data AW240761 (Tbc1d5): 0.001667
  Gene expression data AW543460 (Pard3): 0.06037
  Gene expression data AW543723: 0.2943
  Gene expression data AW986246 (Maoa): 0.01683
  Gene expression data BB027848 (4732466D17Rik): −0.03697
  Gene expression data BB043558 (9230114K14Rik): −0.1292
  Gene expression data BB275142 (AW456874): 0.02823
  Gene expression data BB308836 (Ppm1l): −0.0317
  Gene expression data BB318221 (Zdhhc14): 0.0002333
  Gene expression data BB463610 (4632434l11Rik): −0.3672
  Gene expression data BB526605 (Mipol1): 0.3407
  Gene expression data BB770528 (Rai2): −0.08327
  Gene expression data BB821363 (Scfd2): −0.084
  Gene expression data BC004827 (Psat1): 0.3937
  Gene expression data BC008626 (Icam1): −0.2705
  Gene expression data BC010462 (BC010462): −0.4089
  Gene expression data BC012247 (Dcxr): −0.0311
  Gene expression data BC012260 (Psmf1): −0.1838
  Gene expression data BC015270 (Hist2h3c2): 0.1186
  Gene expression data BC016073 (Cdkal1): 0.0051
  Gene expression data BC016265 (Ube2e2): 0.01507
  Gene expression data BC019882 (Acaa1b): 1.0984
  Gene expression data BC025501 (Aaas): −0.2261
  Gene expression data BC025837 (Sbk1): −0.3033
  Gene expression data BC025915 (Cova1): −0.05383
  Gene expression data BC026422 (Tgm1): 0.0232
  Gene expression data BF719766 (Thyn1): −0.1153
  Gene expression data BG065754 (Ccng1): −0.08917
  Gene expression data BG066903 (Kif16b): 0.0241
  Gene expression data BG069873 (Gnb1l): −0.2107
  Gene expression data BG070887 (Gtdc1): −0.05163
  Gene expression data BG076151 (Ppm1d): −0.08637
  Gene expression data BG261907 (Large): 0.09293
  Gene expression data BI651416 (Cdc42bpg): 0.01387
  Gene expression data BI660702 (Ell3): −0.1539
  Gene expression data BM198879 (Ercc5): −0.2194
  Gene expression data BM230508 (A030007D23Rik): −0.1178
  Gene expression data NM_007987 (Fas): −0.1337
  Gene expression data NM_008522 (Ltf): 0.0771
  Gene expression data NM_008576 (Abcc1): 0.3586
  Gene expression data NM_011176 (St14): −0.1445
  Gene expression data NM_011316 (Saa4): −0.1988
  Gene expression data NM_012006 (Acot1): 1.862
  Gene expression data NM_013866 (Zfp385): −0.1953
  Gene expression data NM_018770 (Igsf4a): −0.08853
  Gene expression data NM_021451 (Pmaip1): 0.01303
  Gene expression data NM_025770 (Atg10): −0.01263
  Gene expression data NM_028803 (Gbe1): −0.0826
  Gene expression data NM_030697 (Ankrd47): −0.1623
  Gene expression data NM_053168 (Trim11): −0.201
  Gene expression data NM_134188 (Acot2): 0.8696
  Gene expression data Y15910 (Diap2): 0.06533
48 h
  Gene expression AA561726 average: 0.3194
  Gene expression AF000969 average: −0.5599
  Gene expression AF022072 average: 0.5563
  Gene expression AF033112 average: 0.1422
  Gene expression AF055573 average: −0.1687
  Gene expression AF069954 average: −0.3847
  Gene expression AF297615 average: 0.111
  Gene expression AF335325 average: −0.0865
  Gene expression AI594683 average: −0.5224
  Gene expression AI747296 average: −0.0394
  Gene expression AK005731 average: −0.6498
  Gene expression AK007854 average: −0.2242
  Gene expression AK010447 average: −0.1083
  Gene expression AK010738 average: −0.06687
  Gene expression AK014608 average: −0.455
  Gene expression AK017734 average: −0.5275
  Gene expression AK018383 average: −0.0203
  Gene expression AK019979 average: 0.04547
  Gene expression AV095209 average: 0.2956
  Gene expression AV141095 average: −0.0311
  Gene expression AV173869 average: −0.005067
  Gene expression AV216768 average: 0.4153
  Gene expression AV219418 average: 0.1539
  Gene expression AV221299 average: 0.1649
  Gene expression AV246296 average: −0.1054
  Gene expression AV251625 average: 0.0423
  Gene expression AV254764 average: −0.265
  Gene expression AV327248 average: 0.0856
  Gene expression BB009155 average: −0.4697
  Gene expression BB027848 average: −0.2609
  Gene expression BB043558 average: −0.188
  Gene expression BB046347 average: −0.1072
  Gene expression BB140436 average: −0.07237
  Gene expression BB204486 average: 0.3188
  Gene expression BB223872 average: −0.4287
  Gene expression BB246912 average: −0.1992
  Gene expression BB275142 average: −0.2874
  Gene expression BB458460 average: 0.007967
  Gene expression BB463610 average: −0.2186
  Gene expression BB730977 average: 0.7532
  Gene expression BB743970 average: 0.1551
  Gene expression BB770528 average: −0.001733
  Gene expression BB781615 average: −0.2937
  Gene expression BC003284 average: −0.2108
  Gene expression BC004827 average: 0.3756
  Gene expression BC005552 average: 0.3056
  Gene expression BC006713 average: −0.1305
  Gene expression BC010318 average: 0.1353
  Gene expression BC012247 average: −0.5319
  Gene expression BC012955 average: −0.2554
  Gene expression BC013893 average: −0.5709
  Gene expression BC017615 average: 0.06827
  Gene expression BC019379 average: 0.0072
  Gene expression BC019882 average: 0.1948
  Gene expression BC021352 average: 0.06563
  Gene expression BC022148 average: −0.1976
  Gene expression BC025169 average: −0.0788
  Gene expression BC026131 average: 0.0392
  Gene expression BC027026 average: −0.007933
  Gene expression BC027121 average: −0.1424
  Gene expression BC027185 average: −0.2381
  Gene expression BE956581 average: 0.04267
  Gene expression BF719766 average: 0.07637
  Gene expression BG065754 average: 0.0641
  Gene expression BG066491 average: −0.061
  Gene expression BG076151 average: −0.241
  Gene expression BG076333 average: 0.2383
  Gene expression BG797099 average: −0.02097
  Gene expression BG967046 average: −0.2562
  Gene expression BI651416 average: −0.1051
  Gene expression BI966443 average: 0.07723
  Gene expression BM198879 average: −0.1608
  Gene expression BM200015 average: 0.009533
  Gene expression BM230508 average: −0.471
  Gene expression BM936480 average: −0.04323
  Gene expression BQ174991 average: 0.4039
  Gene expression L21027 average: 0.3857
  Gene expression NM_007556 average: 0.5247
  Gene expression NM_007980 average: 0.1776
  Gene expression NM_007987 average: −0.005833
  Gene expression NM_008522 average: −0.06957
  Gene expression NM_008935 average: 0.3779
  Gene expression NM_009897 average: 0.09963
  Gene expression NM_011075 average: 0.3891
  Gene expression NM_011176 average: −0.4607
  Gene expression NM_011316 average: −0.4717
  Gene expression NM_012006 average: 1.5971
  Gene expression NM_013642 average: 0.3286
  Gene expression NM_013738 average: −0.3378
  Gene expression NM_013929 average: −0.006633
  Gene expression NM_018881 average: 0.08383
  Gene expression NM_019738 average: −0.6326
  Gene expression NM_030697 average: −0.6238
  Gene expression NM_053122 average: −0.04513
  Gene expression NM_134147 average: −0.2207
  Gene expression NM_134188 average: 0.2382
  Gene expression X62701 average: 0.7542
